From PubChem BioAssay AID434954 (Broad Institute, 2010)
Active and inactive are the calls of the source.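 Rule for the calls: active = IC50 at or below a set limit above the highest tested dose; inconclusive = flat curve with 30 to 70% inhibition, or poor fit; inactive = the rest.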

target: Glycogen synthase kinase-3 beta (Homo sapiens) (UniProt P49841); experiment: concentration-response blocking of human GSK3B – biochemical, luminescence, cell-free homogeneous, retest, dose response (AID 434954); details: recombinant GSK3beta, ADP-Glo luminescence, 60 min
Sequence (P49841 whole entry, looked up): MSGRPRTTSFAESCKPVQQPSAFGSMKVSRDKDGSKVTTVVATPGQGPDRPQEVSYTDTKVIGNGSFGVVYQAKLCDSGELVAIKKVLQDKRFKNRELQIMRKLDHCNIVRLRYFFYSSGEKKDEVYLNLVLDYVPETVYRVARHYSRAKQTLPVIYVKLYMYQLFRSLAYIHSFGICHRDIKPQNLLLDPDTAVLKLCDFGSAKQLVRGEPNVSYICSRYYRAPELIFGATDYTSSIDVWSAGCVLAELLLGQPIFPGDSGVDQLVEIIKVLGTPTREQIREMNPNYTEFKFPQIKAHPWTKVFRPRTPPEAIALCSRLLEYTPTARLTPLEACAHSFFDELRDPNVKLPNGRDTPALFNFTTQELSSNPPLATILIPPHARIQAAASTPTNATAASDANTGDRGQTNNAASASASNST

SMILES | IC50
CCOC(=O)C1=C(C)Nc2ncnn2C1c1ccccc1F (stereo not drawn) | > 30 µM (inactive)
O=C(O)CC1S/C(=N/N=C/c2ccc(-c3ccc(Cl)c([N+](=O)[O-])c3)o2)NC1=O (stereo not drawn) | > 30 µM (inactive)
Clc1ccc(/C=N/Nc2ncnc3nc[nH]c23)cc1 | 20.4 µM
O=C(O)c1ccc(N=Nc2c(O)[nH]c3cc(Cl)ccc23)cc1 | 19.1 µM
O=C1CC(SC(=Nc2ccccc2)Nc2ccccc2)C(=O)N1c1cccc2ccccc12 (stereo not drawn) | > 30 µM (inactive)
CCCC1=C(C(=O)OCC)C(c2cccs2)n2ncnc2N1 (stereo not drawn) | 23.2 µM
O=C1CCCC2=C1C(c1cccs1)n1ncnc1N2 (stereo not drawn) | > 30 µM (inactive)
Oc1ccc(/C=N/Nc2ccc(C(F)(F)F)cn2)cc1O | 16.1 µM
COc1ccc(-c2nn(CCC#N)cc2/C=N/O)cc1OC | > 30 µM (inactive)
Cc1c(C=Nc2ccc(S(=O)(=O)CCO)cc2)c(O)[nH]c(=O)c1C#N | > 30 µM (inactive)
COc1cc(/C=N/O)ccc1OCc1ccccc1Cl | > 30 µM (inactive)
Fc1cccc(/C=N/Nc2ncnc3nc[nH]c23)c1 | 11.9 µM
CCOc1cc(C2C(C(=O)N3CCCCC3)=C(C)NC3=C2C(=O)CC(C)(C)C3)ccc1O (stereo not drawn) | > 30 µM (inactive)
O=c1[nH]c(N/N=C/c2ccccc2)nc2ccccc12 | > 30 µM (inactive)
O=C1CCCC2=C1C(c1cccs1)Nc1ccccc1N2 (stereo not drawn) | > 30 µM (inactive)
CN(C)C=NC(=O)/C(C#N)=C1\CCc2ccccc2N1 | 20.1 µM
O=C(N/N=C/c1ccc(O)c(O)c1)N/N=C/c1ccc(O)c(O)c1 | 13.3 µM
CCOC(=O)C1=C(C)Nc2ncnn2C1c1ccc2c(c1)OCO2 (stereo not drawn) | > 30 µM (inactive)
COc1ccc(OC)c(N=c2oc3cc(O)ccc3cc2C(N)=O)c1 | 11.9 µM
CSc1nc2n(n1)C(c1cccs1)C1=C(CCCC1=O)N2 (stereo not drawn) | > 30 µM (inactive)
N#Cc1c(N)nc2c3c(sc(=N)c2c1N)NC(=O)CC3c1ccccc1 (stereo not drawn) | > 30 µM (inactive)
O=C(Nc1cccc2c1C(=O)NC2=O)c1cccc(N2C(=O)CCC2=O)c1 | > 30 µM (inactive)
C(=N\Nc1ncnc2nc[nH]c12)/c1cccs1 | 19.7 µM
N#CCCn1cc(/C=N/O)c(-c2ccc(-c3ccccc3)cc2)n1 | > 30 µM (inactive)
NS(=O)(=O)c1ccc(N=Nc2c(O)[nH]c3ccc(Br)cc23)cc1 | > 30 µM (inactive)

SMILES | IC50
COc1cc(/C=N/Nc2ccc(C(F)(F)F)cn2)ccc1O | 10.1 µM
O/N=C/c1cn(-c2ccccc2)nc1-c1ccccc1 | 26 µM
O=C(O)c1ccc(/C=N/Nc2ccc(C(F)(F)F)cn2)cc1 | 20.4 µM
CCCCOC(=O)C1=C(C)Nc2ncnn2C1c1cccc(OC)c1OC (stereo not drawn) | 4.25 µM
COCCOC(=O)C1=C(C)Nc2ncnn2C1c1ccccc1 (stereo not drawn) | > 30 µM (inactive)
Cc1cc(=O)[nH]c(N/N=C/c2ccc(-c3ccc([N+](=O)[O-])cc3)o2)n1 | > 30 µM (inactive)
CN=C(C)/C(C(=O)OC)=C(/O)c1ccc(Cl)cc1Cl | > 30 µM (inactive)
Fc1ccccc1/C=N/Nc1ncnc2nc[nH]c12 | 11.2 µM
COc1ccc(-c2nn(-c3ccccc3)cc2/C=N/Nc2ccc(Cl)c(C(=O)O)c2)cc1OC | > 30 µM (inactive)
COc1cccc(C2C3=C(CC(C)(C)CC3=O)Nc3n[nH]c(C)c32)c1 (stereo not drawn) | 0.958 µM
CC1=C(C(=O)OCc2ccccc2)C(c2ccccc2OC(F)F)NC(=O)N1 (stereo not drawn) | 4.4 µM
CSc1nsc(/C=C/Nc2ccc(Cl)cc2)c1C#N | > 30 µM (inactive)
Cc1[nH]nc2c1C(c1cccs1)C1=C(CC(C)(C)CC1=O)N2 (stereo not drawn) | 1.36 µM
COc1cccc(C2Nc3ccccc3NC3=C2C(=O)CC(C)(C)C3)c1 (stereo not drawn) | > 30 µM (inactive)
CCOC(=O)C1=C(C)Nc2ncnn2C1c1c[nH]c2ccccc12 (stereo not drawn) | 4.64 µM
CCOc1cc(C2Nc3ccccc3NC3=C2C(=O)CC(C)(C)C3)ccc1O (stereo not drawn) | > 30 µM (inactive)
CCOC(=O)C1=C(C)Nc2ncnn2C1c1cc(OC)ccc1OC (stereo not drawn) | > 30 µM (inactive)
Nc1ncnc2c1ncn2C1OC(CO)C(O)C1O (stereo not drawn) | > 30 µM (inactive)
COc1cccc(C2C(C#N)=C(C)NC3=C2C(=O)CC(C)(C)C3)c1 (stereo not drawn) | > 30 µM (inactive)
Cc1nn(-c2ccccn2)c2c1C(c1ccncc1)C1=C(CC(C)(C)CC1=O)N2 (stereo not drawn) | > 30 µM (inactive)
O=c1[nH]c(=O)n(CCc2ccc(F)cc2)c(O)c1/C=N/N1CCCCC1 | > 30 µM (inactive)
O=C(NCCCN1CCCC1=O)c1c(O)nc2sccn2c1=O | > 30 µM (inactive)
Cc1[nH]nc2c1C(c1ccc(O)cc1)C1=C(CC(C)(C)CC1=O)N2 (stereo not drawn) | 2.06 µM
COc1cc(/C=N/NC(=O)c2ccc(O)cc2)ccc1Oc1ccc([N+](=O)[O-])cn1 | > 30 µM (inactive)
COc1ccc(-c2c(C)n([O-])c(C)c(C)[n+]2=O)cc1 | > 30 µM (inactive)

SMILES | IC50
Oc1ccccc1/C=N/Nc1nn[nH]n1 | > 30 µM (inactive)
CCOC(=O)C1=C(C)Nc2ncnn2C1/C=C/c1ccccc1 (stereo not drawn) | > 30 µM (inactive)
Cc1c(C=Nc2ccc(S(=O)(=O)N(C)C)cc2)c(O)[nH]c(=O)c1C#N | > 30 µM (inactive)
CCOC(=O)c1sc2c(c1C)C(c1cccs1)C1=C(CCCC1=O)N2 (stereo not drawn) | > 30 µM (inactive)
CCCCCOC(=O)C1=C(C)Nc2ncnn2C1c1cccs1 (stereo not drawn) | > 30 µM (inactive)
Cc1ccc(C2C3=C(CC(C)(C)CC3=O)Nc3[nH]c(=S)[nH]c(=O)c32)cc1 (stereo not drawn) | > 30 µM (inactive)
COc1cccc(C2C(C(=O)OCc3ccccc3)=C(C)Nc3ncnn32)c1OC (stereo not drawn) | 3.82 µM
Cc1ccc(-c2nn(-c3ccccc3)cc2/C=N/O)cc1 | 0.565 µM
Cc1cccc(N=Nc2c(C)c(C#N)c(O)[nH]c2=O)c1 | 0.775 µM
O=[N+]([O-])c1ccc2[nH]c(O)c(N=NC3CS(=O)(=O)CC3O)c2c1 (stereo not drawn) | 23 µM
Nc1ncnc2c1ncn2[C@@H]1O[C@H](CO)[C@@H](O)[C@@H]1O | > 30 µM (inactive)
CCCC1=C(C(=O)OCC)C(c2ccco2)n2ncnc2N1 (stereo not drawn) | 17.4 µM
C/C(=N\Nc1nccnc1Cl)c1ccc(Br)cc1 | > 30 µM (inactive)
C=CCOc1ccc(/C=N/Nc2ccccn2)cc1OC | > 30 µM (inactive)
N#CC(C#N)=C1NC(N)=C(C#N)C(c2ccccc2)=C1C#N | 19.2 µM
O=c1[nH]c(=O)n(Cc2ccc(F)cc2)c(O)c1C=NCCN1CCCCC1 | > 30 µM (inactive)
Oc1ccc(/C=N/Nc2ncnc3nc[nH]c23)cc1 | > 30 µM (inactive)
COc1ccc(-c2nn(-c3ccccc3)cc2/C=N/Nc2ccccn2)cc1 | > 30 µM (inactive)
O=C(O)c1ccc(-c2ccc(/C=N/Nc3ccc([N+](=O)[O-])cc3)o2)cc1 | > 30 µM (inactive)
COc1cc(C2C(C#N)=C(C)NC3=C2C(=O)CC(C)(C)C3)ccc1O (stereo not drawn) | > 30 µM (inactive)
COc1ccc(-c2nn(-c3ccccc3)cc2/C=N/O)cc1OC | 3.99 µM
Cc1[nH]nc2c1C(c1cccc(O)c1)C1=C(CC(C)(C)CC1=O)N2 (stereo not drawn) | 0.421 µM
COc1ccc(C2C(C#N)=C(C)NC3=C2C(=O)CC(C)(C)C3)cc1 (stereo not drawn) | > 30 µM (inactive)
